# Where two headings read alike, the source gives them in different places.
# Legend:
# [1] = target: T1, human α1G T-type channels (Homo sapiens, UniProt O43497); assay: T-type calcium channel block, whole-cell patch clamp in HEK cell lines; format: cell-based; settings: HEK cells
# T1 construct: expressed in transfected cells; host or cells: HEK cell lines
# Method: Standard patch-clamp techniques were employed to identify blockers of T-type currents. Briefly, previously described HEK cell lines stably expressing human α1G T-type channels were used for all the recordings (passage #: 4-20, 37° C., 5% CO2). To obtain T-type currents, plastic dishes containing semi-confluent cells were positioned on the stage of a ZEISS AXIOVERT S100 microscope after replacing the culture medium with external solution (see below). Whole-cell patches were obtained using pipettes (borosilicate glass with filament, O.D.: 1.5 mm, I.D.: 0.86 mm, 10 cm length), fabricated on a SUTTER P-97 puller with resistance values of ˜5 M• (see below for internal solution).
# In the non-inactivating protocol, the holding potential is set at −110 mV and with a pre-pulse at −100 mV for 1 second prior to the test pulse at −40 mV for 50 ms. […]
# Test compounds were dissolved in external solution, 0.1-0.01% DMSO. After ˜10 min rest, they were applied by gravity close to the cell using a WPI microfil tubing. The “non-inactivated” pre-pulse was used to examine the resting block of a compound. The “inactivated” protocol was employed to study voltage-dependent block. However, the initial data shown below were mainly obtained using the non-inactivated protocol only. IC50 values are shown for various compounds of the invention in Table 5.
# [2] = target: T2, rat brain N-type calcium channel subunits (α1B+α2δ+β1b cDNA subunits) (Rattus norvegicus, UniProt Q02294); assay: N-type calcium channel block, whole cell patch clamp in transfected HEK 293 cells; format: cell-based; settings: holding potential −80 mV to +10 mV
# T2 construct: expressed in transfected cells; host or cells: HEK 293
# Method: N-type calcium channel blocking activity was assayed in human embryonic kidney cells, HEK 293, stably transfected with the rat brain N-type calcium channel subunits (α1B+α2δ+β1b cDNA subunits). Alternatively, N-type calcium channels (α1B+α2δ+β1b cDNA subunits), L-type channels (α1C+α2δ+β1b cDNA subunits) and P/Q-type channels (α1A+α2δ+β1b cDNA subunits) were transiently expressed in HEK 293 cells. Briefly, cells were cultured in Dulbecco's modified eagle medium (DMEM) supplemented with 10% fetal bovine serum, 200 U/ml penicillin and 0.2 mg/ml streptomycin at 37° C. with 5% CO2. At 85% confluency cells were split with 0.25% trypsin/1 mM EDTA and plated at 10% confluency on glass coverslips. At 12 hours the medium was replaced and the cells transiently transfected using a standard calcium phosphate protocol and the appropriate calcium channel cDNA's. Fresh DMEM was supplied and the cells transferred to 28° C./5% CO2. Cells were incubated for 1 to 2 days prior to whole cell recording.
# Whole cell patch clamp experiments were performed using an Axopatch 200B amplifier (Axon Instruments, Burlingame, Calif.) linked to a personal computer equipped with pCLAMP software. The external and internal recording solutions contained, respectively, 5 mM BaCl2, 10 mM MgCl2, 10 mM HEPES, 40 mM TEACl, 10 mM glucose, 87.5 mM CsCl (pH 7.2) and 108 mM CsMS, 4 mM MgCl2, 9 mM EGTA, 9 mM HEPES (pH 7.2). Currents were typically elicited from a holding potential of −80 mV to +10 mV using Clampex software (Axon Instruments). Typically, currents were first elicited with low frequency stimulation (0.067 Hz) and allowed to stabilize prior to application of the compounds. The compounds were then applied during the low frequency pulse trains for two to three minutes to assess tonic block, and subsequently the pulse frequency was increased to 0.2 Hz to assess frequency dependent block. Data were analyzed using Clampfit (Axon Instruments) and SigmaPlot 4.0 (Jandel Scientific).
# [3] = test system: T-type over L-type channels; settings: literature statement (Heady et al. 2001); cited from earlier work
# [4] = inactivation protocol (voltage-dependent block), read-out: IC50 @ −80 mV
# [5] = non-inactivating protocol, pre-pulse −100 mV (resting block), read-out: IC50 @ −100 mV
# [6] = low frequency stimulation 0.067 Hz (tonic block), read-out: IC50 @ 0.067 Hz
# [7] = pulse frequency 0.2 Hz (frequency dependent block), read-out: IC50 @ 0.2 Hz
# T2 sequence (Q02294 whole entry): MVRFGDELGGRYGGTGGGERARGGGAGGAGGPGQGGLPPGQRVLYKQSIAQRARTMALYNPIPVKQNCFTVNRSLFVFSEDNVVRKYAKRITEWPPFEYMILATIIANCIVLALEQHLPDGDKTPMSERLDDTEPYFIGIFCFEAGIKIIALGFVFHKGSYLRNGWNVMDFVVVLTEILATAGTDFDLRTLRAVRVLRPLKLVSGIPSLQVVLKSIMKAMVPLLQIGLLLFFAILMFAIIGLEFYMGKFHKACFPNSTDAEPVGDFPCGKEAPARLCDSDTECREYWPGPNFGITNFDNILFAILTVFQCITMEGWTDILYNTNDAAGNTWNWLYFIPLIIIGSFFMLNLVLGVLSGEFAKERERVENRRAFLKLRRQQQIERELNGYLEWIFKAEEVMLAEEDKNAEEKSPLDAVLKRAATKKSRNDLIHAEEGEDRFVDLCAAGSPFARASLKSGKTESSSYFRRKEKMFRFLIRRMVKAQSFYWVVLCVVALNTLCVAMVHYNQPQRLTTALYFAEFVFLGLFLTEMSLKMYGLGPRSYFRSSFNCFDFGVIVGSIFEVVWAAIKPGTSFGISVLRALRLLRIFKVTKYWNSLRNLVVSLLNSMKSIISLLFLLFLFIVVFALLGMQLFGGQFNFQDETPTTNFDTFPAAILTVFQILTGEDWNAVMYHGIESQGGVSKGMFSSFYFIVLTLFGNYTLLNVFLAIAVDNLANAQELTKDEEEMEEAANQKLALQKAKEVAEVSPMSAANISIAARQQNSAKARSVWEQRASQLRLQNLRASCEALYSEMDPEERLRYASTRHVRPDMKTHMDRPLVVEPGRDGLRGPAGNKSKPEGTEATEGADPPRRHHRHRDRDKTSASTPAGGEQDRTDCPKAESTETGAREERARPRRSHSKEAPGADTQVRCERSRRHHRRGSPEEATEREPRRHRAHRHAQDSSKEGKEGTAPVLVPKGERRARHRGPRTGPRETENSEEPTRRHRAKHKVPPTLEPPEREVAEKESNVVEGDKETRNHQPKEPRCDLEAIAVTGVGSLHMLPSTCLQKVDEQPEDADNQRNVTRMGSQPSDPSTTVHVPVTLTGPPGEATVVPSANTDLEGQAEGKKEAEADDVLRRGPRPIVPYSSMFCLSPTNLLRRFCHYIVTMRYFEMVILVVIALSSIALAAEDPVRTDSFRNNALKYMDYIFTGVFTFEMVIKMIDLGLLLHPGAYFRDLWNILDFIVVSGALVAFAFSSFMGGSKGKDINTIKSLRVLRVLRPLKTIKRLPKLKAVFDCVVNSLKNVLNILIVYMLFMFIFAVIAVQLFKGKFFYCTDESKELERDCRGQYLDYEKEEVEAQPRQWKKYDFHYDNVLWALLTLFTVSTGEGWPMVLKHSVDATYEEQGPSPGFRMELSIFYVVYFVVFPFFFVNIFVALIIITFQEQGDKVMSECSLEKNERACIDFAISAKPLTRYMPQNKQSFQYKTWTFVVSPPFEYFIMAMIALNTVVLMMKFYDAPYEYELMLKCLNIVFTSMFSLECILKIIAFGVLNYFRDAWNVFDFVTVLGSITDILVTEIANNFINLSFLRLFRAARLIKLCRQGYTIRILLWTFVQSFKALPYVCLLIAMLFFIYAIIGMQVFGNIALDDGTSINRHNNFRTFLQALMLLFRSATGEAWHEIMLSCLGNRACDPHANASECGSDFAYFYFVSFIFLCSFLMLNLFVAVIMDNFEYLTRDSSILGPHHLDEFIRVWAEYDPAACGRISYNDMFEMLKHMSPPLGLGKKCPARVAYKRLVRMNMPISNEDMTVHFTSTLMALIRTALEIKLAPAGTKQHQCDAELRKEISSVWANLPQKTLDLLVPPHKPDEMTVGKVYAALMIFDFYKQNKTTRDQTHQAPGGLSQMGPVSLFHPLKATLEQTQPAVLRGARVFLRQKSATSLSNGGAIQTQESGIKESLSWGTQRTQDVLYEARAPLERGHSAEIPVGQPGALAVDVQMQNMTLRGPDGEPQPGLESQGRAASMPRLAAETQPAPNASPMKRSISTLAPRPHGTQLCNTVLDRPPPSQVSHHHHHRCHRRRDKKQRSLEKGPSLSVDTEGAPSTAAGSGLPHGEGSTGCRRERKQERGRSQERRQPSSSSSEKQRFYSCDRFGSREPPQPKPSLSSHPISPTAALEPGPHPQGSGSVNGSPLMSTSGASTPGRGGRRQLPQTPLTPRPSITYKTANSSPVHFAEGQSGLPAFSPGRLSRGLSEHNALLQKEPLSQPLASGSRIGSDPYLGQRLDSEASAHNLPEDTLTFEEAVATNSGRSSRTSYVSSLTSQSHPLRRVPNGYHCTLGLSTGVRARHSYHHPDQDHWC
# T1 sequence (O43497 whole entry): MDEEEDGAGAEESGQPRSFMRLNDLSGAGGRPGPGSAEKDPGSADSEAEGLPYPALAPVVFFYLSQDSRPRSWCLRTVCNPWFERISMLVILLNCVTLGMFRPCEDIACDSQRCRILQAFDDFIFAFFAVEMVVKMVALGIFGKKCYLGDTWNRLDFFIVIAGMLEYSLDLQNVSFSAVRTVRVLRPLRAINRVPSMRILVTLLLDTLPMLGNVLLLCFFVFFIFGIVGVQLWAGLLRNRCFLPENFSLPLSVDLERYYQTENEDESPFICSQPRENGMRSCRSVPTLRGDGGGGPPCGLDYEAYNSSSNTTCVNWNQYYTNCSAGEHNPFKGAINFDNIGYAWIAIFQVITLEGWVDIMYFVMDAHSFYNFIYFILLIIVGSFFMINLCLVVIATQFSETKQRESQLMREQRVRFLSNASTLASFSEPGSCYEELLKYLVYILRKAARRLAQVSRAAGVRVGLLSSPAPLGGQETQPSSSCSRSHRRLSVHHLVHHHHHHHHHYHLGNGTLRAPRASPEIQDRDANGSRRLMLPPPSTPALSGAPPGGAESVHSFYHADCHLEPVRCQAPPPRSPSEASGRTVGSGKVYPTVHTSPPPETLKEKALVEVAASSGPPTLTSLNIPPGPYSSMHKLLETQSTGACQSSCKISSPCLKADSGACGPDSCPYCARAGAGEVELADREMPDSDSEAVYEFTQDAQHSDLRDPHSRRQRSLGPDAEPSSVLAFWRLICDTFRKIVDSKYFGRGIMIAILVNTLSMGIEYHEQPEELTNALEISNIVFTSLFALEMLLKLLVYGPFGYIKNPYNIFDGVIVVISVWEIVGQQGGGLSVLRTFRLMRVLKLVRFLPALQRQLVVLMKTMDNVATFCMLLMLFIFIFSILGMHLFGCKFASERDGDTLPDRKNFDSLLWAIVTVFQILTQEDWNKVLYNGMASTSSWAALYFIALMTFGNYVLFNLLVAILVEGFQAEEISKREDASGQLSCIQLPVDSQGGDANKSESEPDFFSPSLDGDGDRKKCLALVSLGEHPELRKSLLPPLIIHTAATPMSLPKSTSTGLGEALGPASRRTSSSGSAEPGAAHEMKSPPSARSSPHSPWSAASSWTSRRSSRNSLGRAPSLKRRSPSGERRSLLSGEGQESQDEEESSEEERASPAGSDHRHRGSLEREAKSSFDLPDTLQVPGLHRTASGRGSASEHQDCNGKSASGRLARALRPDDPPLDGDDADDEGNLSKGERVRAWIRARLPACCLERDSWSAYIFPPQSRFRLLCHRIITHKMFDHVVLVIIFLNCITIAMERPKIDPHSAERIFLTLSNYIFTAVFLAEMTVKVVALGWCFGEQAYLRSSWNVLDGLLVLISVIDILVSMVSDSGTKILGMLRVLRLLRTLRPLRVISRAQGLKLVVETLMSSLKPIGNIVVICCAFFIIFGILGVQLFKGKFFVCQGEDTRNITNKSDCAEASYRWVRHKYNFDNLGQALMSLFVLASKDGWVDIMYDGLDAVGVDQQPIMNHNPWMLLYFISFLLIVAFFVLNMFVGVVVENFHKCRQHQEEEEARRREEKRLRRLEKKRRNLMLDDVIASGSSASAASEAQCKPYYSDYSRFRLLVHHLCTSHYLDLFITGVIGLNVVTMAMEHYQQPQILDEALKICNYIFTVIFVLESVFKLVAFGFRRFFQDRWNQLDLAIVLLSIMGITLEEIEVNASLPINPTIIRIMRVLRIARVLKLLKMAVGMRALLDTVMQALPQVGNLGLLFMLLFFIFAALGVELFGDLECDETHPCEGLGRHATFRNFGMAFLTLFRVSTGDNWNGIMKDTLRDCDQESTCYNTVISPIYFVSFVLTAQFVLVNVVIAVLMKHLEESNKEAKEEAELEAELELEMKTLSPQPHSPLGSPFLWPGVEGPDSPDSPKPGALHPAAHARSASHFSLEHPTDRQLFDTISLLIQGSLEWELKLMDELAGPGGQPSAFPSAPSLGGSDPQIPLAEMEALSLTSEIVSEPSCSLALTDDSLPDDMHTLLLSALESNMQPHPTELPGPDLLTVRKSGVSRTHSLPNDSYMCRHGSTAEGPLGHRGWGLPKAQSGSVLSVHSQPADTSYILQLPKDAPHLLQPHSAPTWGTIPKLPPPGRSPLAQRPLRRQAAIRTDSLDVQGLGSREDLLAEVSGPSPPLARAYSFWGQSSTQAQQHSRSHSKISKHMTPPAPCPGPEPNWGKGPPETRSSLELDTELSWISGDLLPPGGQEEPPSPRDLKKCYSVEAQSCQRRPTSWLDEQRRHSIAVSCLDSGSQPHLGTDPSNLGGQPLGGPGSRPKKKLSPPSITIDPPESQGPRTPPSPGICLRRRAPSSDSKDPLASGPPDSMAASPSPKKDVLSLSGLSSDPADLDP
Structure (SMILES),"IC50 [1, 4] [nM]","IC50 [1, 5] [nM]","IC50 [2, 6] [nM]","IC50 [2, 7] [nM]",selective for T-type over L-type channels [3]
"c1ccc(-c2cc(CN3CCN(C(c4ccccc4)c4ccccc4)CC3)on2)cc1 [Compound 2, 5-((4-benzhydrylpiperazin-1-yl)methyl)-3-phenylisoxazole]",350,1600,1700,670,–
"COc1ccccc1-c1cc(C(=O)N2CCN(C(c3ccccc3)c3ccccc3)CC2)on1 [Compound 4, (4-benzhydrylpiperazin-1-yl)(3-(2-methoxyphenyl)isoxazol-5-yl)methanone]",–,–,2990,1490,–
"Fc1ccccc1-c1cc(CN2CCN(C(c3ccccc3)c3ccccc3)CC2)on1 [Compound 6, 5-((4-benzhydry1piperazin-1-yl)methyl)-3-(2-fluorophenyl)isoxazole]",–,–,3400,1100,–
"O=C(CC(c1ccccc1)c1ccccc1)N1CCN(Cc2cc(-c3ccccc3)no2)CC1 [Compound 9, 3,3-diphenyl-1-(4-((3-phenylisoxazol-5-yl)methyl)piperazin-1-yl)propan-1-one]",1700,> 10000,2800,1200,–
"Cc1ccc(C(c2ccccc2)N2CCN(Cc3cc(-c4ccccc4)no3)CC2)c(C)c1 (stereo not drawn) [Compound 10, 5-((4-((2,4-dimethylphenyl)(phenyl)methyl)piperazin-1-yl)methyl)-3-phenylisoxazole]",2180,9210,1070,400,–
"Cc1ccc(C(c2ccccc2)N2CCN(C(=O)c3cc(-c4ccccc4F)no3)CC2)c(C)c1 (stereo not drawn) [Compound 11, (4-((2,4-dimethylphenyl)(phenyl)methyl)piperazin-1-yl)(3-(2-fluorophenyl)isoxazol-5-yl)methanone]",2770,14800,2180,1130,–
"Clc1ccc(C(c2ccccc2)N2CCN(Cc3cc(-c4ccccc4)no3)CC2)c(Cl)c1 (stereo not drawn) [Compound 14, 5-((4-((2,4-dichlorophenyl)(phenyl)methyl)piperazin-1-yl)methyl)-3-phenylisoxazole]",5530,> 16500,22200,2240,–
"O=C(c1cc(-c2ccccc2F)no1)N1CCN(C(c2ccccc2)c2ccc(Cl)cc2Cl)CC1 (stereo not drawn) [Compound 15, (4-((2,4-dichlorophenyl)(phenyl)methyl)piperazin-1-yl)(3-(2-fluorophenyl)isoxazol-5-yl)methanone]",–,–,6470,3380,–
"Fc1ccccc1-c1cc(CN2CCN(C(c3ccccc3)c3ccc(Cl)cc3Cl)CC2)on1 (stereo not drawn) [Compound 16, 5-((4-((2,4-dichlorophenyl)(phenyl)methyl)piperazin-1-yl)methyl)-3-(2-fluorophenyl) isoxazole]",–,–,3150,1960,–
COCC(=O)O[C@]1(CCN(C)CCCc2nc3ccccc3[nH]2)CCc2cc(F)ccc2[C@@H]1C(C)C [Mibefradil],–,–,–,–,10-30 fold

# Further lines, with some results ahead:
"IC50 [1, 4] [nM]","IC50 [1, 5] [nM]","IC50 [2, 6] [nM]","IC50 [2, 7] [nM]",Structure (SMILES),selective for T-type over L-type channels [3]
1900,> 10000,650,290,"O=C(c1cc(-c2ccccc2)no1)N1CCN(C(c2ccccc2)c2ccccc2)CC1 [Compound 1, (4-benzhydrylpiperazin-1-yl)(3-phenylisoxazol-5-yl)methanone]",–
–,–,800,370,"O=C(c1cc(-c2ccccc2F)no1)N1CCN(C(c2ccccc2)c2ccccc2)CC1 [Compound 3, (4-benzhydrylpiperazin-1-yl)(3-(2-fluorophenyl)isoxazol-5-yl)methanone]",–
–,–,680,340,"COc1ccccc1-c1cc(CN2CCN(C(c3ccccc3)c3ccccc3)CC2)on1 [Compound 5, 5-((4-benzhydry1piperazin-1-yl)methyl)-3-(2-methoxyphenyl)isoxazole]",–
–,–,520,330,"O=C(CC(c1ccccc1)c1ccccc1)N1CCN(Cc2cc(-c3ccccc3F)no2)CC1 [Compound 7, 1-(4-((3-(2-fluorophenyl)isoxazol-5-yl)methyl)piperazin-1-yl)-3,3-diphenylpropan-1-one]",–
–,–,600,290,"COc1ccccc1-c1cc(CN2CCN(C(=O)CC(c3ccccc3)c3ccccc3)CC2)on1 [Compound 8, 1-(4-((3-(2-methoxyphenyl)isoxazol-5-yl)methyl)piperazin-1-yl)-3,3-diphenylpropan-1-one]",–
830,3690,950,570,"Cc1ccc(C(c2ccccc2)N2CCN(Cc3cc(-c4ccccc4F)no3)CC2)c(C)c1 (stereo not drawn) [Compound 12, 5-((4-((2,4-dimethylphenyl)(phenyl)methyl)piperazin-1-yl)methyl)-3-(2-fluorophenyl)isoxazole]",–
